According to PubChem BioAssay (NCI):
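Tested at 5 concentrations; 48 h exposure; 96-well plates; endpoints linearly interpolated, else capped at highest concentration. TGI marks complete inhibition of growth.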

Experiments:
Assay in all cases: inhibition of tumour cell growth, NCI panel, 48 h
[1] = system: TK-10 renal
[2] = system: IGROV1 ovarian
[3] = system: MOLT-4 leukemia
[4] = system: EKVX NSCLC
[5] = system: OVCAR-8 ovarian
[6] = system: CCRF-CEM leukemia
[7] = system: A549 NSCLC
[8] = system: HCT-15 colon
[9] = system: MDA-MB-435
[10] = system: SW-620 colon
[11] = system: HOP-62 NSCLC
[12] = system: COLO 205 colon
[13] = system: HCT-116 colon
[14] = system: PC-3 prostate
[15] = system: SK-MEL-28 melanoma
[16] = system: UO-31 renal
[17] = system: KM12 colon
[18] = system: HT29 colon
[19] = system: NCI/ADR-RES ovarian
[20] = system: NCI-H23 lung
[21] = system: SK-MEL-2 melanoma
[22] = system: U251 CNS
[23] = system: RXF 393 renal
[24] = system: A498 renal
[25] = system: T-47D breast
[26] = system: M14 melanoma
[27] = system: RPMI-8226 leukemia
[28] = system: SNB-19 CNS
[29] = system: SK-OV-3 ovarian
[30] = system: K-562 leukemia
[31] = system: NCI-H460 lung
[32] = system: SF-295 CNS
[33] = system: SR leukemia
[34] = system: MCF7 breast
[35] = system: NCI-H226 lung
[36] = system: OVCAR-5 ovarian
[37] = system: HCC-2998 colon
[38] = system: SF-539 CNS
[39] = system: MDA-MB-231 breast
[40] = system: UACC-62 melanoma
[41] = system: HL-60(TB) leukemia
[42] = system: SNB-75 CNS
[43] = system: HS 578T breast
[44] = system: NCI-H522 lung
[45] = system: UACC-257 melanoma
[46] = system: ACHN renal
[47] = system: DU-145 prostate
[48] = system: BT-549 breast
[49] = system: OVCAR-4 ovarian
[50] = system: MALME-3M melanoma
[51] = system: CAKI-1 renal
[52] = system: SN12C renal
[53] = system: MDA-N
[54] = system: LOX IMVI melanoma
[55] = system: HOP-92 NSCLC
[56] = system: 786-0 renal
[57] = system: SF-268 CNS
[58] = system: OVCAR-3 ovarian
[59] = system: SK-MEL-5 melanoma

Q: Which TGI [1] does the source give for COc1ccc2nc3cc(Cl)ccc3c(NCCCCCC(=O)NC(COc3cnc4c(ccc5cccnc54)c3)COc3cnc4c(ccc5cccnc54)c3)c2c1 here?
A: The TGI was 91.6 µM.

Q: What about the TGI [2] of the same compound?
A: Its TGI is over 100 µM.

Q: What about the TGI [3] of the same compound?
A: Its TGI is 11.6 µM.

Q: And the TGI [4]?
A: Its TGI is over 100 µM.

Q: And the TGI [5]?
A: The TGI was over 100 µM.

Q: And the TGI [6]?
A: The TGI was 12.6 µM.

Q: What about the TGI [7] of the same compound?
A: Its TGI is over 100 µM.

Q: What about the TGI [8] of the same compound?
A: Its TGI is over 100 µM.

Q: What about the TGI [9] of the same compound?
A: The TGI was over 100 µM.

Q: What about the TGI [10] of the same compound?
A: The TGI was 24.4 µM.

Q: And the TGI [11]?
A: The TGI was 35.8 µM.

Q: What about the TGI [12] of the same compound?
A: The TGI was 10.7 µM.

Q: And the TGI [13]?
A: Its TGI is 14.9 µM.

Q: What about the TGI [14] of the same compound?
A: Its TGI is 26.8 µM.

Q: And the TGI [15]?
A: Its TGI is over 100 µM.

Q: What about the TGI [16] of the same compound?
A: The TGI was over 100 µM.

Q: And the TGI [17]?
A: The TGI was over 100 µM.

Q: And the TGI [18]?
A: The TGI was over 100 µM.

Q: What about the TGI [19] of the same compound?
A: The TGI was over 100 µM.

Q: What about the TGI [20] of the same compound?
A: Its TGI is over 100 µM.

Q: And the TGI [21]?
A: The TGI was 41.5 µM.

Q: What about the TGI [22] of the same compound?
A: The TGI was 21.8 µM.

Q: What about the TGI [23] of the same compound?
A: Its TGI is 30.2 µM.

Q: And the TGI [24]?
A: The TGI was 62.8 µM.

Q: And the TGI [25]?
A: Its TGI is 28.6 µM.

Q: What about the TGI [26] of the same compound?
A: The TGI was over 100 µM.

Q: And the TGI [27]?
A: Its TGI is 20.2 µM.

Q: What about the TGI [28] of the same compound?
A: The TGI was over 100 µM.

Q: And the TGI [29]?
A: Its TGI is over 100 µM.

Q: And the TGI [30]?
A: The TGI was 13.6 µM.

Q: And the TGI [31]?
A: Its TGI is 23.1 µM.

Q: What about the TGI [32] of the same compound?
A: The TGI was 55.5 µM.

Q: And the TGI [33]?
A: The TGI was 11.7 µM.

Q: What about the TGI [34] of the same compound?
A: Its TGI is 17.7 µM.

Q: And the TGI [35]?
A: The TGI was 21.8 µM.

Q: And the TGI [36]?
A: Its TGI is over 100 µM.

Q: And the TGI [37]?
A: The TGI was 27.9 µM.

Q: What about the TGI [38] of the same compound?
A: Its TGI is 53.5 µM.

Q: And the TGI [39]?
A: The TGI was 44 µM.

Q: And the TGI [40]?
A: The TGI was over 100 µM.

Q: And the TGI [41]?
A: Its TGI is 15.1 µM.

Q: And the TGI [42]?
A: The TGI was 4.78 µM.

Q: And the TGI [43]?
A: The TGI was over 100 µM.

Q: What about the TGI [44] of the same compound?
A: The TGI was over 100 µM.

Q: And the TGI [45]?
A: Its TGI is 31.4 µM.

Q: What about the TGI [46] of the same compound?
A: Its TGI is over 100 µM.

Q: And the TGI [47]?
A: Its TGI is 23.4 µM.

Q: And the TGI [48]?
A: Its TGI is 24.1 µM.

Q: And the TGI [49]?
A: The TGI was over 100 µM.

Q: And the TGI [50]?
A: Its TGI is over 100 µM.

Q: What about the TGI [51] of the same compound?
A: The TGI was over 100 µM.

Q: And the TGI [52]?
A: The TGI was over 100 µM.

Q: And the TGI [53]?
A: Its TGI is over 100 µM.

Q: And the TGI [54]?
A: Its TGI is 86.4 µM.

Q: And the TGI [55]?
A: The TGI was over 100 µM.

Q: What about the TGI [56] of the same compound?
A: The TGI was 28.1 µM.

Q: What about the TGI [57] of the same compound?
A: Its TGI is 40.2 µM.

Q: And the TGI [58]?
A: The TGI was 34.6 µM.

Q: How did the TGI [1] turn out when Cn1ccnc1Sc1ccc(/C=N/NC(=O)c2ccccc2O)cc1[N+](=O)[O-] was run?
A: The TGI was over 100 µM.

Q: And the TGI [2]?
A: Its TGI is over 100 µM.

Q: What about the TGI [3] of the same compound?
A: The TGI was 13.3 µM.

Q: What about the TGI [4] of the same compound?
A: The TGI was over 100 µM.

Q: What about the TGI [5] of the same compound?
A: Its TGI is over 100 µM.

Q: What about the TGI [6] of the same compound?
A: Its TGI is over 100 µM.

Q: What about the TGI [7] of the same compound?
A: Its TGI is over 100 µM.

Q: And the TGI [8]?
A: Its TGI is over 100 µM.

Q: And the TGI [9]?
A: Its TGI is over 100 µM.

Q: What about the TGI [10] of the same compound?
A: The TGI was over 100 µM.

Q: And the TGI [11]?
A: Its TGI is over 100 µM.

Q: What about the TGI [12] of the same compound?
A: The TGI was 56.8 µM.

Q: And the TGI [13]?
A: The TGI was over 100 µM.

Q: What about the TGI [14] of the same compound?
A: The TGI was over 100 µM.

Q: What about the TGI [15] of the same compound?
A: Its TGI is over 100 µM.

Q: What about the TGI [16] of the same compound?
A: The TGI was over 100 µM.

Q: What about the TGI [17] of the same compound?
A: Its TGI is over 100 µM.

Q: And the TGI [18]?
A: Its TGI is over 100 µM.

Q: And the TGI [19]?
A: Its TGI is over 100 µM.

Q: And the TGI [20]?
A: Its TGI is over 100 µM.

Q: What about the TGI [21] of the same compound?
A: The TGI was over 100 µM.

Q: What about the TGI [22] of the same compound?
A: The TGI was over 100 µM.

Q: And the TGI [23]?
A: Its TGI is over 100 µM.

Q: What about the TGI [24] of the same compound?
A: The TGI was over 100 µM.

Q: What about the TGI [25] of the same compound?
A: Its TGI is over 100 µM.

Q: What about the TGI [26] of the same compound?
A: The TGI was over 100 µM.

Q: What about the TGI [27] of the same compound?
A: Its TGI is 41.2 µM.

Q: What about the TGI [28] of the same compound?
A: The TGI was over 100 µM.

Q: And the TGI [29]?
A: The TGI was over 100 µM.

Q: And the TGI [31]?
A: Its TGI is over 100 µM.

Q: What about the TGI [32] of the same compound?
A: Its TGI is over 100 µM.

Q: And the TGI [33]?
A: Its TGI is over 100 µM.

Q: And the TGI [34]?
A: Its TGI is over 100 µM.

Q: And the TGI [35]?
A: The TGI was over 100 µM.

Q: What about the TGI [36] of the same compound?
A: Its TGI is over 100 µM.

Q: And the TGI [37]?
A: Its TGI is over 100 µM.

Q: What about the TGI [38] of the same compound?
A: The TGI was over 100 µM.

Q: And the TGI [39]?
A: Its TGI is over 100 µM.

Q: What about the TGI [40] of the same compound?
A: The TGI was over 100 µM.

Q: What about the TGI [41] of the same compound?
A: Its TGI is over 100 µM.

Q: What about the TGI [42] of the same compound?
A: Its TGI is over 100 µM.

Q: And the TGI [43]?
A: Its TGI is over 100 µM.

Q: What about the TGI [44] of the same compound?
A: The TGI was over 100 µM.

Q: What about the TGI [45] of the same compound?
A: The TGI was over 100 µM.

Q: And the TGI [46]?
A: The TGI was over 100 µM.

Q: And the TGI [47]?
A: Its TGI is over 100 µM.

Q: And the TGI [48]?
A: Its TGI is over 100 µM.

Q: What about the TGI [49] of the same compound?
A: Its TGI is over 100 µM.

Q: And the TGI [50]?
A: Its TGI is over 100 µM.

Q: And the TGI [51]?
A: The TGI was over 100 µM.

Q: What about the TGI [59] of the same compound?
A: The TGI was over 100 µM.

Q: What about the TGI [52] of the same compound?
A: The TGI was over 100 µM.

Q: And the TGI [53]?
A: Its TGI is over 100 µM.

Q: What about the TGI [54] of the same compound?
A: The TGI was over 100 µM.

Q: What about the TGI [55] of the same compound?
A: Its TGI is over 100 µM.

Q: And the TGI [56]?
A: Its TGI is over 100 µM.

Q: What about the TGI [57] of the same compound?
A: Its TGI is over 100 µM.

Q: What about the TGI [58] of the same compound?
A: Its TGI is over 100 µM.
